Like-named read-outs stand apart in the source and are kept apart here.

IC50 data for 13 compounds are collected here from patent publication US20250215029A1 (Recludix Pharma, Inc., priority 2022, published 2025).

The target of assay [1] is T1, pY705-STAT3 in PBMC (Homo sapiens, UniProt P40763).
T1 construct: Cryopreserved Peripheral Blood Mononuclear Cells (PBMC) are from AllCells; host or cells: cryopreserved PBMC
Briefly: MSD-pSTAT-PBMC Assay (pSTAT3, IL-6 stimulated). The note with it: PBMC, compound 3 hrs, then 10 ng/mL IL-6 for 10 min. The class given is cell-based. In outline: (§1)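 Thawed human PBMC rested overnight in IMDM/10% FBS, then got compound for 3 hrs before a 10 min cytokine pulse: 1 ng/mL IL-4 for pSTAT6, 10 ng/mL IL-6 for pSTAT3. Lysates went to MSD sandwich capture on total STAT6 or STAT3 with phospho-specific detection. IC50 came from background-subtracted, DMSO-normalized signal.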

Assay [2] has as its target T2, pY641-STAT6 in PBMC (Homo sapiens, UniProt P42226).
T2 construct: Cryopreserved Peripheral Blood Mononuclear Cells (PBMC) are from AllCells; host or cells: cryopreserved PBMC
T2 sequence (P42226 1-847): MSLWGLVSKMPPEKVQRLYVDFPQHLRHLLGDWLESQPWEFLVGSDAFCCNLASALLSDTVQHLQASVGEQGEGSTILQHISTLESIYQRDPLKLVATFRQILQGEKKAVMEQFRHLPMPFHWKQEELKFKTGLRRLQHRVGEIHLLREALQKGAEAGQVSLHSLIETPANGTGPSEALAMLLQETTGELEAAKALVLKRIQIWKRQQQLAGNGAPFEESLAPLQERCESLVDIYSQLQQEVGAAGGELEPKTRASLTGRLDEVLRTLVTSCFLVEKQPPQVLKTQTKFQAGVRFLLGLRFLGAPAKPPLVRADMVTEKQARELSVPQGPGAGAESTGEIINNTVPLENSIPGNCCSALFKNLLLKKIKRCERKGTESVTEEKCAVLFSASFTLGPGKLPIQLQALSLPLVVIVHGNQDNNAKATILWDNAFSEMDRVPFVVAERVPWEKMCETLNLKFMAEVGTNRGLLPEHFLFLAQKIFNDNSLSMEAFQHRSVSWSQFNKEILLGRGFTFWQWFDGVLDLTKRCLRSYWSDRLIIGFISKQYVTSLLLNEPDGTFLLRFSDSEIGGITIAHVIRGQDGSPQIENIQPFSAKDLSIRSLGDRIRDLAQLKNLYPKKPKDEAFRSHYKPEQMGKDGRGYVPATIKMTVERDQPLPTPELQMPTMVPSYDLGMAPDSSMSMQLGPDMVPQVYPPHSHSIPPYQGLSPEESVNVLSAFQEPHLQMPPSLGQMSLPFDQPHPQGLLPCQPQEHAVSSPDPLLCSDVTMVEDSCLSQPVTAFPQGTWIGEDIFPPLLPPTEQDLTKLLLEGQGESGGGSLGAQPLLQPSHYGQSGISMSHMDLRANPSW
As to the kind of experiment: MSD-pSTAT-PBMC Assay (pSTAT6, IL-4 stimulated). It is filed as cell-based. The note with it: compound 3 hrs, then 1 ng/mL IL-4 for 10 min. The essentials: as §1

Setting [3] is: PBMC, Table 1114, read-out: pSTAT6.

T1 sequence (P40763 whole entry): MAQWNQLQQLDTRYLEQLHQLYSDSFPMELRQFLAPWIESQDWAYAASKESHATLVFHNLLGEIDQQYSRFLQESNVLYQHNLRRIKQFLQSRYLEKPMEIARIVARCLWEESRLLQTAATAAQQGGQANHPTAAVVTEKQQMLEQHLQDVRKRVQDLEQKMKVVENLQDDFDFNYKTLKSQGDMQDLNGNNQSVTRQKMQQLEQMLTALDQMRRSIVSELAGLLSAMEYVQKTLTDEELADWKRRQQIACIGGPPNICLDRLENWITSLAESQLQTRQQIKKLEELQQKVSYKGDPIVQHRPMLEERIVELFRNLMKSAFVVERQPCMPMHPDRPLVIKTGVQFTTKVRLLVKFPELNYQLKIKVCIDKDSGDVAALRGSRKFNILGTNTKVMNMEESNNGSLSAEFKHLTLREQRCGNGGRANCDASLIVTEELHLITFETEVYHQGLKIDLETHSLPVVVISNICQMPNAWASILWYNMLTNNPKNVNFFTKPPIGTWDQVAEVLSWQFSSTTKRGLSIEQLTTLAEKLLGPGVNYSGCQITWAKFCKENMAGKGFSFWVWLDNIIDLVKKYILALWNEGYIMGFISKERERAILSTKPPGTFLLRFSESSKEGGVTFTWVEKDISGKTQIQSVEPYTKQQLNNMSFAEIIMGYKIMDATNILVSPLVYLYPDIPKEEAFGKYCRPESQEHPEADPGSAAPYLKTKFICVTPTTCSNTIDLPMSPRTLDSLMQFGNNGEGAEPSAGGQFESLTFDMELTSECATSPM

In the case of `CC(C)COC(=O)[C@H](C)NP(=O)(Cc1ccc2ccc(C(=O)N[C@H]3CCCC[C@H]4CC[C@@H](C(=O)N5CC(c6ccccc6)CC56CC6)N4C3=O)cc2c1)Oc1ccccc1` (stereo partly drawn) [Compound 410, isobutyl (((7-(((3S,6S,10aS)-5-oxo-3-(6-phenyl-4-azaspiro[2.4]heptane-4-carbonyl)decahydropyrrolo[1,2-a]azocin-6-yl)carbamoyl)naphthalen-2-yl)methyl)(phenoxy)phosphoryl)-L-alaninate], the IC50 in assay [1] (Table 115, read-out: STAT3) is > 3000 nM; in assay [2] (STAT6, PBMC, Table 115), > 3000 nM. In the case of `CC(C)(C)C(=O)OCOP(=O)(OCOC(=O)C(C)(C)C)C(F)(F)c1ccc2sc(C(=O)N[C@H]3CCC[C@H]4CCC[C@@H](C(=O)N5CC(C#N)C(c6ccccc6)C5)N4C3=O)cc2c1` (stereo partly drawn) [Compound 170, ((((2-(((4S,7S,10aS)-4-(rel-(trans)-3-cyano-4-phenylpyrrolidine-1-carbonyl)-6-oxodecahydropyrido [1,2-a]azepin-7-yl)carbamoyl)benzo[b]thiophen-5-yl)difluoromethyl)phosphoryl)bis(oxy)) bis(methylene) bis(2,2-dimethylpropanoate)], the IC50 is 100 to 1000 nM in assay [1] (Table 1114, read-out: pSTAT3) and < 100 nM in assay [2] (setting [3]).

In the case of `CCCC(=O)SCCOP(=O)(OCCSC(=O)CCC)C(F)(F)c1ccc2sc(C(=O)N[C@H]3CCCC[C@H]4CC[C@@H](C(=O)N5C[C@@H](C#N)[C@H](c6ccccc6)C5)N4C3=O)cc2c1` (single isomer, unassigned) [Compound 152, S,S′-(((((2-(((3S,6S,10aS)-3-((3S,4R or 3R,4S)-3-cyano-4-phenylpyrrolidine-1-carbonyl)-5-oxodecahydro-pyrrolo[1,2-a]azocin-6-yl)carbamoyl)benzo[b]thiophen-5-yl)difluoromethyl)phosphoryl)bis(oxy))bis(ethane-2,1-diyl)) dibutanethioate], the IC50 lay in the range of 1000 to 3000 nM in assay [1] (Table 1114, read-out: pSTAT3) and 100 to 1000 nM in assay [2] (setting [3]). Consider `CC(C)CC(=O)SCCOP(=O)(OCCSC(=O)CC(C)C)C(F)(F)c1ccc2ccc(C(=O)N[C@H]3CCCCC[C@H]4[C@H](O)C[C@@H](C(=O)N5CC(C#N)C(c6cc[nH]c(=O)c6)C5)N4C3=O)cc2c1` (single isomer, unassigned) [Compound 167, S,S′-(((((7-(((1R,3S,6S,11aS)-3-((3S,4R or 3R,4S)-3-cyano-4-(2-oxo-1,2-dihydropyridin-4-yl)pyrrolidine-1-carbonyl)-1-hydroxy-5-oxodecahydropyrrolo [1,2-a]azocin-6-yl)carbamoyl)naphthalen-2-yl)difluoromethyl)phosphoryl)bis(oxy))bis(ethane-2,1-diyl)) bis(3-methylbutane thioate)], for which the IC50 was > 3000 nM in assay [1] (Table 1114, read-out: pSTAT3) and 100 to 1000 nM in assay [2] (setting [3]). For the compound `CC(C)(C)C(=O)SCCOP(=O)(OCCSC(=O)C(C)(C)C)C(F)(F)c1ccc2sc(C(=O)N[C@H]3CCCC[C@H]4CC[C@@H](C(=O)N5C[C@@H](C#N)[C@H](c6cc[nH]c(=O)c6)C5)N4C3=O)cc2c1` (relative stereo) [Compound 157, S,S′-(((((2-(((3S,6S,10aS)-3-(rel-(trans)-3-cyano-4-(2-oxo-1,2-dihydropyridin-4-yl)pyrrolidine-1-carbonyl)-5-oxodecahydro-pyrrolo[1,2-a]azocin-6-yl)carbamoyl)benzo [b]thiophen-5-yl)difluoromethyl)phosphoryl)bis(oxy))bis(ethane-2,1-diyl)) bis(2,2-dimethylpropane-thioate)], the IC50 in assay [1] (Table 1114, read-out: pSTAT3) lay in the range of 100 to 1000 nM; in assay [2] (setting [3]), 100 to 1000 nM.

For the compound `CCC(CC)COC(=O)[C@H](C)NP(=O)(Cc1ccc2ccc(C(=O)N[C@H]3CCCC[C@H]4CC[C@@H](C(=O)N5CC(c6ccccc6)CC56CC6)N4C3=O)cc2c1)Oc1ccccc1` (stereo partly drawn) [Compound 404, 2-ethylbutyl (((7-(((3S,6S,10aS)-5-oxo-3-(6-phenyl-4-azaspiro[2.4]heptane-4-carbonyl)decahydropyrrolo[1,2-a]azocin-6-yl)carbamoyl)naphthalen-2-yl)methyl)(phenoxy)phosphoryl)-L-alaninate], the IC50 in assay [1] (Table 115, read-out: STAT3) is > 3000 nM; in assay [2] (STAT6, PBMC, Table 115), 1000 to 3000 nM.

On to `CCCC(=O)SCCOP(=O)(Oc1cccc(C#N)c1)C(F)(F)c1ccc2sc(C(=O)N[C@H]3CCCC[C@H]4CC[C@@H](C(=O)N5C[C@@H](C#N)[C@H](c6ccccc6)C5)N4C3=O)cc2c1` (single isomer, unassigned) [Compound 138, S-(2-((((2-(((3S,6S,10aS)-3-((3S,4R or 3R,4S)-3-cyano-4-phenylpyrrolidine-1-carbonyl)-5-oxodecahydro-pyrrolo[1,2-a]azocin-6-yl)carbamoyl)benzo[b]thiophen-5-yl)difluoromethyl) (3-cyanophenoxy)phosphoryl)oxy)ethyl)butane-thioate], for which the IC50 was > 3000 nM in assay [1] (Table 1114, read-out: pSTAT3) and 100 to 1000 nM in assay [2] (pSTAT6, PBMC, Table 1114). Turning to `CC(C)(C)C(=O)OCOP(=O)(OCOC(=O)C(C)(C)C)C(F)(F)c1ccc2sc(C(=O)N[C@H]3C[C@@H](O)CC[C@H]4CC[C@@H](C(=O)N5C[C@H](c6ccccc6)[C@@H](C#N)C5)N4C3=O)cc2c1` (single isomer, unassigned) [Compound 185, ((((2-(((3S,6S,8S, 10aR)-3-((3R,4S or 3S,4R)-3-cyano-4-phenyl-pyrrolidine-1-carbonyl)-8-hydroxy-5-oxodeca-hydropyrrolo [1,2-a]azocin-6-yl)carbamoyl)benzo[b]thiophen-5-yl)difluoro-methyl)phos-phoryl)bis(oxy)) bis(methylene) bis(2,2-dimethyl-propanoate)], the IC50 in assay [1] (Table 1114, read-out: pSTAT3) is 100 to 1000 nM; in assay [2] (setting [3]) it was < 100 nM. Take `CCCOC(=O)[C@H](C)NP(=O)(Oc1ccccc1)[C@@H](F)c1ccc2sc(C(=O)N[C@H]3CCC[C@H]4CC[C@@H](C(=O)N5C[C@H](c6ccc(C)cc6)[C@@H](C#N)C56CC6)N4C3=O)cc2c1` (single isomer, unassigned) [Compound 478]: the IC50 in assay [2] (STAT6, PBMC, Table 115) is < 100 nM. For the compound `CCCOC(=O)[C@H](C)NP(=O)(Oc1ccccc1)[C@@H](F)c1ccc2sc(C(=O)N[C@H]3CCCC[C@H]4CC[C@@H](C(=O)N5C[C@@H](c6cccc(C(F)F)c6)[C@H](C#N)C56CC6)N4C3=O)cc2c1` (single isomer, unassigned) [Compound 483], the IC50 in assay [2] (read-out: STAT6, PBMC, Table 115) is < 100 nM. For the compound `C[C@H](NP(=O)(Oc1ccccc1)[C@@H](F)c1ccc2sc(C(=O)N[C@H]3CCCC[C@H]4CC[C@@H](C(=O)N5C[C@@H](c6cccnc6)CC56CC6)N4C3=O)cc2c1)C(=O)OCC1CCOCC1` (stereo partly drawn) [Compound 360, (tetrahydro-2H-pyran-4-yl)methyl (((R)-fluoro(2-(((3S,6S,10aS)-5-oxo-3-((R)-6-(pyridin-3-yl)-4-azaspiro[2.4]heptane-4-carbonyl)decahydropyrrolo[1,2-a]azocin-6-yl)carbamoyl)benzo [b]thiophen-5-yl)methyl)(phenoxy)phosphoryl)-L-alaninate], the IC50 in assay [2] (STAT6, PBMC, Table 115) was < 100 nM. `CC(C)OC(=O)[C@H](C)NP(=O)(Oc1ccccc1)[C@@H](F)c1ccc2sc(C(=O)N[C@H]3CCCC[C@H]4CC[C@@H](C(=O)N5C[C@@H](c6cccnc6)CC56CC6)N4C3=O)cc2c1` (stereo partly drawn) [Compound 474, isopropyl (((R)-fluoro(2-(((3S,6S,10aS)-5-oxo-3-((R)-6-(pyridin-3-yl)-4-azaspiro[2.4]heptane-4-carbonyl)decahydropyrrolo[1,2-a]azocin-6-yl)carbamoyl)benzo [b]thiophen-5-yl)methyl)(phenoxy)phosphoryl)-L-alaninate]: the IC50 in assay [2] (STAT6, PBMC, Table 115) is < 100 nM. Take `CCCOC(=O)[C@H](C)NP(=O)(Oc1ccccc1)[C@H](F)c1ccc2sc(C(=O)N[C@H]3CCCC[C@H]4CC[C@@H](C(=O)N5C[C@@H](C#N)[C@H](c6ccccc6)C5)N4C3=O)cc2c1` (single isomer, unassigned) [Compound 321]: in assay [2] (STAT6, PBMC, Table 115), the IC50 was < 100 nM.
